Molecules are shown by their SMILES. Where only a bound is given, the exact number is not on record here.

From a melting point compilation (Tetko et al.; mined from patent text by program, amines drawn as free bases though some values may be those of a salt) come the findings set out here.

By melting point is commonly meant the temperature of the solid-liquid transition.

For the molecule `CCc1nn(CC(=O)NN)c(CC)c1Oc1cc(Cl)cc(Cl)c1`, the melting point was above 250 °C.

Molecule `COc1ccc(Cl)c([N+](=O)[O-])c1Cl` yielded a melting point of 97 to 99 °C.

Consider `Clc1ccc(-c2cc(C3CC3)n3nccc3n2)cc1`, for which the melting point was in the range of 137 to 138 °C.

With `CC(C)COP(C)(=O)CC(O)CN1C(=O)c2ccccc2C1=O` (centres undefined), the melting point lay within 110 to 113 °C.

Consider `Cc1cc(C(=O)c2sc(Nc3ccc(N4CCN(C)CC4)cc3)nc2N)c(C)s1`, for which the melting point lay within 205 to 206 °C.

The molecule `COc1cc(OC)c2c(=O)[nH]c(-c3cccc(N4CCN(CCS(C)(=O)=O)CC4)n3)nc2c1` displayed a melting point of 243 to 244 °C.

For the molecule `CCNC(=O)C(C)(C)c1ccc(C(=O)Nc2cn3cc(Cl)ccc3n2)cc1`, the melting point is 228 to 230 °C.

For `CC1(C)CC(=O)C(C(=O)Nc2ccc(Cl)c(Cl)c2)C(=O)C1`, the melting point was in the range of 124 to 129 °C.

`COc1cc(C(=O)C#CCOC(C)=O)cc(OC)c1OC` came in with a melting point of 104 to 105 °C.

In the case of `COc1cc(C)c(C=CC(C)=CC=CC(C)=CC(=O)O)c(C)c1`, the melting point was 207 to 208 °C.

In turn, `Nc1ccc(Cl)cc1S` returned a melting point of 70 to 72 °C.

As to `NC(=O)c1cc(NCc2c(F)c(F)c(C(F)(F)F)c(F)c2F)ccc1O`, the melting point lay in the range of 143 to 145 °C.

With `CC(SCc1nccc2ccccc12)C(=O)O` (centres undefined), the melting point fell in the range of 153 to 156 °C.

As for `COc1cc(-c2ccc(N)nn2)ccc1OC(F)F`, the melting point was determined as 184 °C.

For the molecule `CNC(=O)n1cnc(C(N)=O)c1N`, the melting point lay within 165 to 169 °C.

The molecule `CN1C(=O)C(c2ccc(OC(F)F)cc2)(c2cccc(CCCC(F)(F)F)c2)N=C1N` (centres undefined) yielded a melting point of 70 °C.

`NC(=O)c1ccc(OC(F)(F)F)c(Cl)c1` yielded a melting point of 98 °C.

As to `COCOc1cc(Cl)ccc1-c1cc(-c2cccc([N+](=O)[O-])c2)c(C#N)c(NC(=O)c2ccco2)n1`, the melting point fell in the range of 154 to 155 °C.

In turn, `Cc1ccc(S(=O)(=O)OCC2(F)CCN(C(=O)c3ccc(F)c(Cl)c3)CC2)cc1` registered a melting point of 92 °C.

`O=C(Nc1ccc2cc(CN3CCCC3)cnc2c1)c1ccc(-c2ccccc2)cc1F`: the melting point is 166 °C.

As for `FC(F)(F)c1cc(Br)cc(OCc2ccc3ccccc3c2)c1`, the melting point is 68 to 70 °C.

As to `COc1ccc2c(c1)Oc1c(ccc(OC)c1C=O)C2(C)C`, the melting point lay within 84.5 to 86 °C.

For the molecule `COc1ccc(N2C(=O)c3cccc(OC)c3NC2c2ccc(OCCCl)cc2)cc1` (centres undefined), the melting point fell in the range of 122 to 124 °C.

As for `CCCCCCCCCCCCCCCCCC(=O)NCNC(=O)CCSc1ccc(O)cc1`, the melting point came out at 172 °C.

Consider `Cc1nc(-n2[nH]c(C)c(Cc3ccc(Cl)cc3)c2=O)sc1C(=O)NCc1cccnc1`, for which the melting point was 215 to 217 °C.

Molecule `COc1ccc(N2CCN(c3c(C)c(C)c4c(c3C)CC(C)O4)CC2)c(OC)c1` (centres undefined) showed a melting point of 142 to 144 °C.

Consider `O=Cc1cn(C2CCc3ccccc3C2)c(=S)[nH]1` (centres undefined), for which the melting point lay in the range of 206 to 210 °C.

`CCOC(=O)c1nc2sc(C(C)C)cc2c(=O)o1`: the melting point is 87.5 to 88.5 °C.

The molecule `Cc1c(Cl)ccc(S(C)(=O)=O)c1Cl` displayed a melting point of 125 to 127 °C.

Consider `C=CCN1CC(=O)N(c2cc(C(=O)NCCCOc3ccc(C(C)(C)CC)cc3C(C)(C)CC)c(O)c3ccccc23)C1=S`, for which the melting point was 204 to 205 °C.

For `COc1ccccc1CC(=O)N1C[C@@H]2C(=O)CCC(c3ccccc3)(c3ccccc3)[C@@H]2C1` (racemic), the melting point amounted to 163 °C.

Turning to `CC(C)Oc1ccc(Cc2nn(-c3ccccc3Cl)c(=O)o2)cc1`, the melting point came out at 54 °C.

`O=CNc1ccc2[nH]c3cc(-c4ccccc4Cl)c4c(c3c2c1)C(=O)NC4=O`: the melting point was in the range of 293 to 297 °C.

In turn, `CCCc1c(O)c(O)c(C(=O)O)c2cc(Cc3ccccc3)c(C)cc12` displayed a melting point of 183 to 184 °C.

Take `CCOc1cc(C(=O)O)cc(N)c1C(=O)c1ccccc1`: the melting point amounted to 230 °C.

The molecule `COCCn1nc(-c2sc(C(=O)NC(C)C)nc2-c2ccccc2)ccc1=O` registered a melting point of 172 °C.

Consider `Cc1nc(N2CCOCC2)sc1-c1ccnc(Nc2ccc(N3CCOCC3)cc2)n1`, for which the melting point was 229 to 231 °C.

Molecule `CN(C)CCCNC(=O)c1ccc(-c2nnc(CSCCCOc3ccccc3)o2)cc1` had a melting point of 77 to 80 °C.

Regarding `S=[PH](c1ccccc1)c1ccccc1`, the melting point lay within 134 to 135 °C.

Regarding `Nn1cc(C(=O)O)c(=O)c2cc(F)c(Cl)cc21`, the melting point was determined as 274 °C.

In turn, `O=C1CC(c2cccc(Cl)c2)c2cc(C(=O)c3ccc(Cl)cc3)ccc2N1` (centres undefined) gave a melting point of 195 °C.

Molecule `CC(C)CCn1cc(C(=O)Nc2nccs2)c2ccc(Cl)cc21` yielded a melting point of 179 to 180 °C.

Turning to `O=C(O)c1ccccc1S(=O)c1cc(Cl)ccc1C(=O)O` (centres undefined), the melting point lay within 279 to 281 °C.

`CN1C(=O)C(=C2CCN(Cc3ccccc3)CC2)c2ccccc21`: the melting point lay within 101 to 102 °C.

Turning to `COc1cc(N)c(Cl)cc1C(=O)NCC1CCN(CCCCCN)CC1`, the melting point is 60 to 63 °C.

As for `O=C(O)c1cccc(-c2cc(-c3ccc(F)cc3)[nH]n2)c1`, the melting point fell in the range of 270 to 272 °C.

`O=C1NC2CCC(=O)N2[C@H]1CO` (some centres undefined) yielded a melting point of 61 to 75 °C.

The molecule `CCS(=O)(=O)c1cc(OCCCCCCc2cccc(OCCCC(=O)O)c2CCC(=O)O)cc(-c2ccc3c(c2)OCO3)c1` showed a melting point of 134 to 135 °C.

Regarding `Cc1sc(-c2ccccc2)nc1COc1cc(COc2ncccc2CC(=O)O)on1`, the melting point was 109 to 110 °C.

The molecule `CNC(=O)c1c(NC(=O)CCl)c(OC)c(C(=O)NC)c(NC(=O)CCl)c1OC` registered a melting point of 146 to 148 °C.

Molecule `CN1C[C@H](CN2CCN(C(c3ccccc3)c3ccccc3)CC2)C[C@@H]2c3cccc4[nH]c(Br)c(c34)C[C@H]21` displayed a melting point of 255 °C.

Regarding `COc1ccc(Nc2nc(NN3CCCCCC3)nc(N(C)C3CCNCC3)n2)cc1Cl`, the melting point was found to be 81 °C.

Take `CC1(C)CCC(=O)N(C2c3cc4nonc4cc3OC(C)(C)C2O)C1` (centres undefined): the melting point lay in the range of 136 to 137 °C.

Molecule `O=C(OCc1ccccc1)[C@H](CC(=O)N1C[C@H]2CCCC[C@H]2C1)Cc1ccccc1` gave a melting point of 107 to 108 °C.

`COc1ccccc1OC(=O)c1cnoc1C` showed a melting point of 108 to 111 °C.

`CCNC(=O)Nc1nc2nc(NCCCN(C)C)ncc2cc1-c1c(C)cccc1C` displayed a melting point of 64 to 70 °C.

On to `COc1ccc(OCc2ccccc2)c(C(=O)OCc2ccccc2)c1`, for which the melting point was in the range of 93 to 94.5 °C.

In the case of `CCCn1nc2c(N)nc3c(c2c1CC(C)C)CCCC3`, the melting point is 167 to 168 °C.

As to `O=C1c2cc([N+](=O)[O-])ccc2OC12CC2`, the melting point lay in the range of 107 to 110 °C.

`Cn1c(C(F)(F)F)cc(=O)n(-c2ccc(Cl)c3c2OC(C)(C)C3)c1=O` came in with a melting point of 152 to 153 °C.

For `CC(=O)Nc1cc(-c2c(-c3cccc(C)c3)nc3cccnn23)ccn1`, the melting point lay within 227 to 228 °C.

In turn, `CC(C)c1nc(-c2ccccc2)c(F)c(-c2ccc(F)cc2)c1CO` displayed a melting point of 164 to 165 °C.

Take `CONS(=O)(=O)c1cccc(C(F)(F)F)c1`: the melting point was in the range of 78 to 81 °C.

For the molecule `O=C1CCCC2=C1C(c1ccc(S(=O)(=O)c3ccccc3)cc1)C1=C(CCCC1=O)N2`, the melting point was found to be 260 °C.

Molecule `CC(C)c1cccc(C(C)C)c1NC(=O)C(Cc1ccccc1)NCc1ccccc1` (centres undefined) came in with a melting point of 120 to 124 °C.

`CN(C)C=NS(=O)(=O)c1c2c(O)cccc2nn1C` had a melting point of 118 to 119 °C.

Regarding `Cc1c(Cl)cc(C#N)n1CCC(C)NC(=O)C(C#N)C(C)C(C)(C)C` (centres undefined), the melting point is 111 to 118 °C.

With `Nc1ccc(CC(=O)Nc2ccc(Nc3ccccc3)cc2)cc1`, the melting point was 162 to 163 °C.

`Cc1nc2c([N+](=O)[O-])cccn2c1C=O` gave a melting point of 188 to 189 °C.

Consider `CCCCc1c2c(nc3cc(F)cc(F)c13)-c1cc3c(c(=O)n1C2)COC(=O)CC3(O)CC` (centres undefined), for which the melting point was found to be 190 °C.

For the molecule `COc1ccc2nc(-c3ccc(C)c(C)c3)n(-c3ccccc3)c2c1`, the melting point was 251 °C.

On to `CCCc1c(OCCCCCc2c(Cl)c(Cl)cc(OC)c2OC)ccc(C(=O)O)c1O`, for which the melting point lay in the range of 152 to 154 °C.

The molecule `Clc1ccc(-c2noc3ccc(CBr)cc23)cc1` registered a melting point of 142 °C.

As for `CN(C)c1nnc(-c2ccc(S(C)=O)cc2)c(-c2ccc(S(C)=O)cc2)n1` (centres undefined), the melting point was 199 to 204 °C.

Molecule `Cc1c(NC(=O)c2ccc(OCC3CCOC3)cc2)ccc2cc(CNC3CCCC3)cnc12` (centres undefined) gave a melting point of 148 to 149 °C.

The molecule `NC(=O)CC(CC(N)=O)c1ccccc1Br` came in with a melting point of 168 to 170 °C.

For `CS(=O)c1n[nH]c2ccc(C(F)(F)F)cc12` (centres undefined), the melting point lay within 168 to 170 °C.

`CNCc1cccc(COc2nc(Cl)cnc2NS(=O)(=O)c2cccc(Cl)c2Cl)c1` returned a melting point of 167 to 168 °C.

For `CC(C)(C)c1cc(CC(S)C(=O)O)cc(C(C)(C)C)c1O` (centres undefined), the melting point was 137 to 140 °C.

The molecule `Oc1ccc(-c2c3ccccc3cc3sc4ccccc4c23)cc1` yielded a melting point of 112 to 116 °C.

Molecule `COc1ccc(N2CCN(c3ccc(OC)nc3-c3ccc(N(C)C)cc3)C(C)C2)cc1` (centres undefined) displayed a melting point of 140 to 148 °C.

`CCN1CCc2nc(N3CCNCC3)ncc2C1=O`: the melting point lay in the range of 205 to 210 °C.

In the case of `Cc1cc(C)cc(Nc2nccc(-c3nc4ccccc4s3)n2)c1`, the melting point lay in the range of 217 to 219 °C.

`CCCNC(=O)Nc1cc(C(C)(C)C)c2c(c1)C(C)(C)CO2` showed a melting point of 193 to 194 °C.

In the case of `CCOCc1nc2cnc(C)c(C)c2n1NC1CCOCC1`, the melting point is 94 to 97 °C.

In the case of `CCCc1c(OCc2ccc(C(=O)NC(C)CCCc3cccnc3)cc2)ccc(C(C)=O)c1O` (centres undefined), the melting point fell in the range of 117 to 120 °C.

As to `O=c1[nH]c2ccc(Cl)cc2n1C1CCNCC1`, the melting point is above 300 °C.

For the molecule `Cc1ccccc1-c1ccc(C(=O)Nc2ccc3cc(CN4CCCC4)cnc3c2C)cc1`, the melting point was in the range of 150 to 151 °C.

In turn, `CCC(=O)OCC(CCn1cnc2cnc(N)nc21)COC(=O)CC` returned a melting point of 77.5 to 79 °C.
